Data as given in PubChem BioAssay (NCI).
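Compound exposure: 48 hours, 5 concentrations, 96-well plates. TGI marks complete inhibition of growth.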

Key:
Experiment in all cases: NCI anticancer screen, dose series, 48 h
[1] = tested on: MOLT-4 leukemia
[2] = tested on: OVCAR-4 ovarian
[3] = tested on: SNB-19 CNS
[4] = tested on: NCI-H460 lung
[5] = tested on: RXF 393 renal
[6] = tested on: M14 melanoma
[7] = tested on: SK-MEL-2 melanoma
[8] = tested on: OVCAR-8 ovarian
[9] = tested on: EKVX NSCLC
[10] = tested on: LOX IMVI melanoma
[11] = tested on: UO-31 renal
[12] = tested on: 786-0 renal
[13] = tested on: HL-60(TB) leukemia
[14] = tested on: SF-539 CNS
[15] = tested on: KM12 colon
[16] = tested on: RPMI-8226 leukemia
[17] = tested on: UACC-62 melanoma
[18] = tested on: SNB-78 CNS
[19] = tested on: DMS 114 small cell lung
[20] = tested on: OVCAR-3 ovarian
[21] = tested on: SK-OV-3 ovarian
[22] = tested on: DLD-1 colon
[23] = tested on: ACHN renal
[24] = tested on: IGROV1 ovarian
[25] = tested on: COLO 205 colon
[26] = tested on: HCC-2998 colon
[27] = tested on: NCI-H23 lung
[28] = tested on: HOP-62 NSCLC
[29] = tested on: RXF-631 renal
[30] = tested on: HOP-92 NSCLC
[31] = tested on: SNB-75 CNS
[32] = tested on: SN12C renal
[33] = tested on: LXFL 529 NSCLC
[34] = tested on: A549 NSCLC
[35] = tested on: SW-620 colon
[36] = tested on: DMS 273 small cell lung
[37] = tested on: HOP-18 NSCLC
[38] = tested on: SF-268 CNS
[39] = tested on: TK-10 renal
[40] = tested on: MALME-3M melanoma
[41] = tested on: OVCAR-5 ovarian
[42] = tested on: K-562 leukemia
[43] = tested on: CCRF-CEM leukemia
[44] = tested on: KM20L2 colon
[45] = tested on: M19-MEL melanoma
[46] = tested on: U251 CNS
[47] = tested on: SK-MEL-5 melanoma
[48] = tested on: SF-295 CNS
[49] = tested on: HCT-116 colon
[50] = tested on: HCT-15 colon

With CC(=O)/C=C\C1CC2C=CC1C2 (stereo not given) the TGI [1] was 66.1 µM, the TGI [2] was > 100 µM and the TGI [3] was > 100 µM. The TGI [4] was > 100 µM, the TGI [5] was > 100 µM and the TGI [6] was > 100 µM. The TGI [7] was > 100 µM, the TGI [8] was > 100 µM and the TGI [9] was > 100 µM. For the same compound, the TGI [10] was 65.4 µM, the TGI [11] was > 100 µM and the TGI [12] was > 100 µM. For the same compound, the TGI [13] was 99.7 µM, the TGI [14] was > 100 µM and the TGI [15] was > 100 µM. For the same compound, the TGI [16] was > 100 µM, the TGI [17] was > 100 µM and the TGI [18] was 73.5 µM. For the same compound, the TGI [19] was 82.8 µM, the TGI [20] was > 100 µM and the TGI [21] was > 100 µM. The TGI [22] was > 100 µM, the TGI [23] was > 100 µM and the TGI [24] was > 100 µM. The TGI [25] was > 100 µM, the TGI [26] was 73.2 µM and the TGI [27] was > 100 µM. For the same compound, the TGI [28] was > 100 µM, the TGI [29] was > 100 µM and the TGI [30] was 79.9 µM. The TGI [31] was 72.2 µM, the TGI [32] was > 100 µM and the TGI [33] was > 100 µM. For the same compound, the TGI [34] was > 100 µM, the TGI [35] was > 100 µM and the TGI [36] was > 100 µM. For the same compound, the TGI [37] was > 100 µM, the TGI [38] was 76.1 µM and the TGI [39] was > 100 µM. For the same compound, the TGI [40] was > 100 µM, the TGI [41] was > 100 µM and the TGI [42] was > 100 µM. For the same compound, the TGI [43] was 70.3 µM, the TGI [44] was > 100 µM and the TGI [45] was > 100 µM. The TGI [46] was > 100 µM, the TGI [47] was > 100 µM and the TGI [48] was > 100 µM. The TGI [49] was 54.5 µM and the TGI [50] was > 100 µM.
